Assays:
Type in all cases: cell-based
A549 cells = test: siRNA knockdown of apoptosis pathway components in A549 cells, Compound I induced cell death
Procedure: (§1) Non-Small Cell Lung Cancer cell lines with different EGFR and p53 mutation status were used. Variable doses of Compound I or cisplatin were used to induce death or proliferative death of the cells. A549 cells were transfected with siRNAs, and transfected cells were cultured for 48 hours prior to the administration of the drugs to attain the maximal down-regulation of the target proteins.

NSCLC cell lines [1] = test: Apoptosis-associated changes by DiOC63 (Δψm) and propidium iodide (viability) staining
From the text: The fluorochromes, 3,3′-dihexyloxacarbocyanine iodide (DiOC63) and propidium iodide (PI) were employed to determine different apoptosis-associated changes. DiOC63 was used for the loss of mitochondrial transmembrane potential (Δψm) and PI was used for the loss of viability.

NSCLC cell lines [2] = test: Anti-proliferative/pro-apoptotic effects in NSCLC cell lines with different EGFR and p53 mutation status
Procedure: as §1

## COc1cccc(Nc2ncnn3ccc(CN4CC[C@@H](N)[C@H](O)C4)c23)c1 [Compound I, 4-Amino-1-[[4-[(3-methoxyphenyl)amino]pyrrolo [2,1-f][1,2,4]triazin-5-yl]methyl]-(3R,4R)-3-piperidinol]
A549 cells; 24 and 48 hours
  effect of caspase-2 down-regulation on Compound I induced cell-death: limited protection against Compound I induced cell-death at 24 hours, but not at 48 hours
A549 cells; both 24 and 48 hours
  effect of Bcl-2 down-regulation, alone or in combination with Bcl-XL, on the effect of Compound I: strongly sensitized A549 cells
NSCLC cell lines [1]; DiOC63 staining
  dissipation of Δψm (marker of early apoptosis): induced dissipation of Δψm
NSCLC cell lines [1]; propidium iodide staining
  incorporation of PI (marker of late apoptosis, loss of viability): incorporation of PI
NSCLC cell lines [1]; with z-VAD.fmk
  effect of pan-caspase inhibitor z-VAD.fmk on the loss of viability: no effect
  effect of pan-caspase inhibitor z-VAD.fmk on the reduction of the Δψm: only a minor protective effect
NSCLC cell lines [2]; NCI-H1975, NCI-H1650, NCIH1299, A549
  order of sensitivity of cell lines: NCI-H1975>>NCI-H1650=NCIH1299>A549
NSCLC cell lines [2]; all NSCLC cell lines tested, including wild-type EGFR and T790M mutant
  anti-proliferative/pro-apoptotic effects: induced anti-proliferative/pro-apoptotic effects in all NSCLC cell lines tested
